In PMC7904790 (Nature Communications, 2021):
Where two headings read alike, the source gives them in different places.

Experiments:
EML4-ALK = target: T1, EML4-ALK (Homo sapiens, UniProt Q9UM73, I1171N/F1174I); test: phospho-ALK western blot in cells; assay type: cell-based
T1 construct: EML4-ALK fusion expressed in Ba/F3 and H3122 cells

NTRK1 [1] = target: T2, NTRK1 (Homo sapiens, UniProt P04629); test: phospho-NTRK1 western blot in KM12 / Ba/F3 cells; assay type: cell-based
T2 construct: TPM3-NTRK1 fusion in cells
T2 sequence (P04629 416-796 limits assumed): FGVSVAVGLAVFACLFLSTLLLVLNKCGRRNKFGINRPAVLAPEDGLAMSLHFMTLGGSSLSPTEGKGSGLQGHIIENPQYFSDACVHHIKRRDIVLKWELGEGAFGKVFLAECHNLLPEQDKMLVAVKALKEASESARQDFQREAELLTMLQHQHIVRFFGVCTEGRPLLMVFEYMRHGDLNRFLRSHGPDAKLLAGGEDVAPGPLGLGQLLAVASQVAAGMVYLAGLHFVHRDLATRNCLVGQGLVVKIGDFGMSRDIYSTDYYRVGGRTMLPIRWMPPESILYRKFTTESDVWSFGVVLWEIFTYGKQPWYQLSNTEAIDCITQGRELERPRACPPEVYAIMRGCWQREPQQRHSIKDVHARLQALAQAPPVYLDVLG

in vitro = test: in vitro; parameters: CellTiter-Glo viability of parental Ba/F3 cells with IL-3 (counter-screen); details: mouse, parental ba/f3 cells +il-3; with IL-3; read-out: IC50 parental Ba/F3 (+IL-3)
Description: To identify drugs that can overcome these mutations, we screened our focused 90-inhibitor library using Ba/F3 cells expressing EML4-ALK I1171N + F1174I and I1171N + L1198H. At a concentration of 50 nM, gilteritinib suppressed the viability of both wild-type (WT) and compound mutant Ba/F3 cells (Fig. 1a). Since gilteritinib has reported as multi-kinase inhibitor, we first evaluated whether the ALK inhibitory efficacy of gilteritinib is driven by on-target activity or not. As a result of western blot analysis, gilteritinib suppressed the autophosphorylation of ALK in EML4-ALK-expressing Ba/F3 cells (Fig. 1b and Supplementary Fig. 1). […] As well as Ba/F3 cell model, we verified the activity of gilteritinib to H3122 cell line that is EML4-ALK-positive NSCLC cells. […] Then, the inhibitory concentration of gilteritinib is matched between ALK phosphorylation and its downstream signals. […] Further, using the phosphoproteomics data, kinase substrate-enrichment analysis (KSEA) predicted activate kinase candidates as potential gilteritinib targets and identified ALK as the most likely regulated protein (Fig. 1e, Supplementary Figs. 3 and 4, and Supplementary Table 2).  Fig. 1 Identification of gilteritinib as an inhibitor of ALK-rearranged cancer cells. a Relative cell viability of parental (with IL-3), EML4-ALK wild-type (WT), EML4-ALK I1171N + F1174I, and EML4-ALK I1171N + L1198H Ba/F3 cells treated with 50 nM of the indicated inhibitors. Cell viability was analyzed using the CellTiter-Glo assay and calculated relative to the viability of dimethyl sulfoxide-treated Ba/F3 cells. b The suppression of phospho-ALK in I1171N + F1174I, I1171N + L1198H mutation-expressing Ba/F3 cells was evaluated using western blotting. Cells were treated with the indicated concentrations of gilteritinib for 3 h (n = 2). c The suppression of phospho-ALK and its downstream signals in H3122 parental cells and I1171N + F1174I compound mutation-expressing cells were evaluated using western blotting. […] N = 3 independent samples examined over three independent experiments and representative experiment data are presented as mean values ± SD. e Volcano plot displaying the −log10 (p-value) versus log2 (gilteritinib treatment/DMSO treatment) for all quantified phosphopeptides. The red diamond indicates phospho-ALK.

NTRK1 [2] = target: T3, NTRK1 (Homo sapiens, UniProt P04629, G667C); test: NTRK1 autophosphorylation western blot in Ba/F3 cells; assay type: cell-based
T3 construct: TPM3-NTRK1 fusion expressed in Ba/F3 cells
T3 sequence (P04629 405-796 G667C limits assumed): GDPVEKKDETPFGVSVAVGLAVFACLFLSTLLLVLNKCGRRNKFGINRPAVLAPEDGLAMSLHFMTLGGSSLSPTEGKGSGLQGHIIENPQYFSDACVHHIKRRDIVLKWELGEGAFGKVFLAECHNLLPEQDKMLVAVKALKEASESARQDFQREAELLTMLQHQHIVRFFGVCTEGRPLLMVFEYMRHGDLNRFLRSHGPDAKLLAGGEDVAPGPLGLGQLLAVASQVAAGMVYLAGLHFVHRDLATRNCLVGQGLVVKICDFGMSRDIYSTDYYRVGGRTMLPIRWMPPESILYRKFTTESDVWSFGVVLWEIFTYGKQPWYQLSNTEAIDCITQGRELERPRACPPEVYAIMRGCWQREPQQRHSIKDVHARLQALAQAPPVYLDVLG

MCC-003 = test: cells; parameters: CellTiter-Glo viability of fusion-positive human cancer cell lines; details: 72 h; read-out: Entrectinib IC50
H3122 = test: cells; parameters: CellTiter-Glo viability of fusion-positive human cancer cell lines; details: Homo sapiens, NCI-H3122, 72 h; read-out: Entrectinib IC50
KM12 = test: cells; parameters: CellTiter-Glo viability of fusion-positive human cancer cell lines; details: Homo sapiens, KM12, 72 h
KARPAS299 = test: cells; parameters: CellTiter-Glo viability of fusion-positive human cancer cell lines; details: Homo sapiens, KARPAS-299, 72 h
JFCR-028-3 = test: cells; parameters: CellTiter-Glo viability of fusion-positive human cancer cell lines; details: 72 h; read-out: Entrectinib IC50

T1 sequence (Q9UM73 1058-1620 I1171N/F1174I limits assumed): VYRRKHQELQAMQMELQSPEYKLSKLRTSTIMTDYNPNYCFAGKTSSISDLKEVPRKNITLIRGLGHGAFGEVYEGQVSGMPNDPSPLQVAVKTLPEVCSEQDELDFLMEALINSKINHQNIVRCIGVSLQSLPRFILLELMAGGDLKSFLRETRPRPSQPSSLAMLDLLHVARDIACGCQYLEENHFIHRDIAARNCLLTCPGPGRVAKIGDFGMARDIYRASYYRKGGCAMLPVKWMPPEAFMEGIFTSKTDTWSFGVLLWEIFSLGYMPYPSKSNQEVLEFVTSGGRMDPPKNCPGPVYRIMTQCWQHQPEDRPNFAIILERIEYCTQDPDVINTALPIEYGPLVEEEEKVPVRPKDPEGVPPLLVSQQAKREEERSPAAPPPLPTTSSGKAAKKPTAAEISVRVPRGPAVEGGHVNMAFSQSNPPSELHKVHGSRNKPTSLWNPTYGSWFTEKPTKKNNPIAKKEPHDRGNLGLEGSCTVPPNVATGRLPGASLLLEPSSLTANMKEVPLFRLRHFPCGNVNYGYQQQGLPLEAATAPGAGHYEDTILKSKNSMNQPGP

| phospho-ALK western blot in cells (EML4-ALK) [nM] | phospho-NTRK1 western blot in KM12 / Ba/F3 cells (NTRK1 [1]) | IC50 (H3122) [nM] | IC50 (KARPAS299; read-out: Entrectinib IC50) [nM] | IC50 (KARPAS299; read-out: Lorlatinib IC50) [nM] | SMILES | CC50 at 72 h (in vitro) [nM] | NTRK1 autophosphorylation western blot in Ba/F3 cells (NTRK1 [2]) | IC50 (MCC-003) [nM] | IC50 (KM12; read-out: Entrectinib IC50) [nM] | IC50 (JFCR-028-3) [nM] | IC50 (KM12; read-out: Lorlatinib IC50) [nM] |
| --- | --- | --- | --- | --- | --- | --- | --- | --- | --- | --- | --- |
| < 30 | ~ 30 nM | – | – | – | CCc1nc(C(N)=O)c(Nc2ccc(N3CCC(N4CCN(C)CC4)CC3)c(OC)c2)nc1NC1CCOCC1 [gilteritinib] | 177 ± 4.9 | gilteritinib, but not entrectinib, inhibited the autophosphorylation of NTRK1 in TPM3-NTRK1 G667C-mutant Ba/F3 cells at a low concentration | – | – | – | – |
| – | – | 44 ± 12 | 42 ± 8.5 | – | CN1CCN(c2ccc(C(=O)Nc3n[nH]c4ccc(Cc5cc(F)cc(F)c5)cc34)c(NC3CCOCC3)c2)CC1 [Entrectinib] | 481 ± 89 | – | 496 ± 147 | 2.6 ± 0.28 | 44 ± 17 | – |
| – | – | – | – | 2.3 ± 1 | C[C@H]1Oc2cc(cnc2N)-c2c(nn(C)c2C#N)CN(C)C(=O)c2ccc(F)cc21 [lorlatinib] | 8240 ± 2410 | – | – | – | – | 138 ± 6 |
